Legend:
cultivated rice = assay: Example 2: damage to cultivated rice with or without safener seed dressing after clodinafop application; assay type: in vivo, Oryza sativa; settings: for Damage to rice (%) after number of days 5: 5 days; for Damage to rice (%) after number of days 10: 10 days; for Damage to rice (%) after number of days 15: 15 days
Protocol: (§1) 500 g of rice seed material are soaked in water in a plastic dish for 24 hours. After the water has been poured off, the seed material is allowed to dry in air for 1 to 2 hours; 0.025 or 0.25 g of safener of formula (I) or (II) is then added and vigorous shaking is carried out. Sowing is performed 24 hours later.
5 days after sowing, the herbicide clodinafop in the form of an EC 100 is applied at a rate of application of 60 or 120 g/ha. 5, 10 and 15 days afterwards, the damage to the rice plants that have emerged and to the weeds is determined. For comparison, untreated cultivated rice is tested under the same conditions as an indicator of the behaviour of wild rice.

rice plants = assay: Example 1: damage to directly sown rice from safener-dressed seed after clodinafop application; assay type: in vivo, Oryza sativa; settings: for Damage to rice (%) after number of days 5: 5 days after application; for Damage to rice (%) after number of days 10: 10 days after application; for Damage to rice (%) after number of days 15: 15 days after application
Protocol: as §1
(§2) 5 days after sowing, the herbicide clodinafop in the form of an EC 100 is applied at a rate of application of 60 g/ha. 5, 10 and 15 days afterwards, the damage to the rice plants that have emerged and to the weeds is determined.

[1] = system: wild rice (Oryza sativa), Echinochloa crus-galli and Leptochloa chinensis; assay: Example 1: damage to undesirable grasses after clodinafop application; assay type: in vivo; settings: clodinafop 60 g/ha
Protocol: as §1, §2

[2] = cultivated rice without safener (indicator for wild rice), clodinafop 60 g/ha
[3] = cultivated rice without safener (indicator for wild rice), clodinafop 120 g/ha
[4] = no safener, clodinafop EC 100 60 g/ha applied 5 days after sowing
[5] = cultivated rice with 0.025 g of safener (per 500 g seed), clodinafop 60 g/ha
[6] = cultivated rice with 0.025 g of safener (per 500 g seed), clodinafop 120 g/ha
[7] = cultivated rice with 0.25 g of safener (per 500 g seed), clodinafop 60 g/ha
[8] = cultivated rice with 0.25 g of safener (per 500 g seed), clodinafop 120 g/ha
[9] = safener 0.025 g per 500 g of seed material, clodinafop 60 g/ha
[10] = safener 0.25 g per 500 g of seed material, clodinafop 60 g/ha
[11] = rice seed dressed with safener 0.025 g per 500 g
[12] = rice seed dressed with safener 0.25 g per 500 g

With C[C@@H](Oc1ccc(Oc2ncc(Cl)cc2F)cc1)C(=O)O [Clodinafop, clodinafop, reference compound] the “Damage to rice (%) after number of days 5” value (cultivated rice; [2]) was 40%, the “Damage to rice (%) after number of days 10” value (cultivated rice; [2]) was 90% and the “Damage to rice (%) after number of days 15” value (cultivated rice; [2]) was 65%. The “Damage to rice (%) after number of days 5” value (cultivated rice; [3]) was 78%, the “Damage to rice (%) after number of days 10” value (cultivated rice; [3]) was 98% and the “Damage to rice (%) after number of days 15” value (cultivated rice; [3]) was 100%. The “Damage to rice (%) after number of days 5” value (rice plants; [4]) was 68%, the “Damage to rice (%) after number of days 10” value (rice plants; [4]) was 65% and the “Damage to rice (%) after number of days 15” value (rice plants; [4]) was 30%. The “Damage to undesirable grasses* (%)” value ([1]; no safener) was 93%.
COC(=O)c1sccc1NS(=O)(=O)c1nc2nc(C)cc(C)n2n1 [Formula II] was tested, and the “Damage to rice (%) after number of days 5” value (cultivated rice; [5]) was 18%, the “Damage to rice (%) after number of days 10” value (cultivated rice; [5]) was 8% and the “Damage to rice (%) after number of days 15” value (cultivated rice; [5]) was 0%. The “Damage to rice (%) after number of days 5” value (cultivated rice; [6]) was 23%, the “Damage to rice (%) after number of days 10” value (cultivated rice; [6]) was 15% and the “Damage to rice (%) after number of days 15” value (cultivated rice; [6]) was 8%. For the same molecule, the “Damage to rice (%) after number of days 5” value (cultivated rice; [7]) was 13%, the “Damage to rice (%) after number of days 10” value (cultivated rice; [7]) was 9% and the “Damage to rice (%) after number of days 15” value (cultivated rice; [7]) was 0%. For the same molecule, the “Damage to rice (%) after number of days 5” value (cultivated rice; [8]) was 25%, the “Damage to rice (%) after number of days 10” value (cultivated rice; [8]) was 16% and the “Damage to rice (%) after number of days 15” value (cultivated rice; [8]) was 5%. For the same molecule, the “Damage to rice (%) after number of days 5” value (rice plants; [9]) was 21%, the “Damage to rice (%) after number of days 10” value (rice plants; [9]) was 9% and the “Damage to rice (%) after number of days 15” value (rice plants; [9]) was 0%. For the same molecule, the “Damage to rice (%) after number of days 5” value (rice plants; [10]) was 5%, the “Damage to rice (%) after number of days 10” value (rice plants; [10]) was 3% and the “Damage to rice (%) after number of days 15” value (rice plants; [10]) was 0%. The “Damage to undesirable grasses* (%)” value [1, 11] was 98% and the “Damage to undesirable grasses* (%)” value [1, 12] was 99%.
With CNC(=O)Nc1ccc(S(=O)(=O)NC(=O)c2ccccc2OC)cc1 [Formula I] the “Damage to rice (%) after number of days 5” value (rice plants; [9]) was 5%, the “Damage to rice (%) after number of days 10” value (rice plants; [9]) was 0% and the “Damage to rice (%) after number of days 15” value (rice plants; [9]) was 0%. The “Damage to rice (%) after number of days 5” value (rice plants; [10]) was 4%, the “Damage to rice (%) after number of days 10” value (rice plants; [10]) was 3% and the “Damage to rice (%) after number of days 15” value (rice plants; [10]) was 0%. The “Damage to undesirable grasses* (%)” value [1, 11] was 100% and the “Damage to undesirable grasses* (%)” value [1, 12] was 98%.
